Data set [1] is described as follows: Pharmacokinetic test of DFNa-containing microcapsules (Test 6). Format: in vivo. Particulars: rabbit knee joint, 1 mg in terms of DFNa, solution in physiological saline (FIG. 9). On the procedure:
The DFNa-containing microcapsules (average particle size: 67.9 μm) obtained in Example 25 were suspended in the same injection-grade dispersion medium as that employed in Test 1. The resulting suspension was injected in a dose of 10 mg in terms of DFNa into a knee joint of a rabbit, and the amount of DF in the synovium and its peripheral tissue was measured periodically. As a control, a solution of DFNa in a physiological saline was injected in a dose of 1 mg in terms of DFNa, and measurements were conducted.

Data set [2] in a line: Pharmacokinetic test of MTX-containing microcapsules (Test 8). Format: in vivo. Particulars: rabbit knee joint, 1 mg in terms of MTX (FIG. 11). Here is the method:
The MTX-containing microcapsules obtained in Example 26 were suspended in the same injection-grade dispersion medium as that employed in Test 1. The resulting suspension was injected in a dose of 1 mg in terms of MTX into a knee joint of a rabbit, and the amount of MTX in the synovium and its peripheral tissue was measured periodically. As a control, MTX was dissolved in a phosphate buffer of pH 7.5 and the resulting solution was injected in a dose of 1 mg in terms of MTX.

Regarding `O=C(O)Cc1ccccc1Nc1c(Cl)cccc1Cl` [diclofenac sodium], the “amount of DF in the synovium and its peripheral tissue” value in data set [1] was “no existence of DF was observed”.
Regarding `CN(Cc1cnc2nc(N)nc(N)c2n1)c1ccc(C(=O)N[C@@H](CCC(=O)O)C(=O)O)cc1` [solution of MTX in the phosphate buffer, Methotrexate], the “amount of MTX in the synovium and its peripheral tissue” value in data set [2] is given as “no existence of MTX was observed”.

(Values after patent US6428804B1, “Intra-articular preparation for the treatment of arthropathy” (SSP Co., Ltd., priority 1997, dated 2002).)
